For one molecule, Irinotecan hydrochloride concentration results are on record in US20060046993A1, “Crystalline polymorphic form of irinotecan hydrochloride” (Pharmacia Italia S.p.A., priority 2004, published 2006).

Structures are written as SMILES. Structures can show the parent of a compound that is named as a salt.

The data set can be described thus: Solubility determination of irinotecan hydrochloride Form c in comparison with Form b (excess solid shaken at room temperature, HPLC assay). In kind it is physicochemical.

For `CCc1c2c(nc3ccc(OC(=O)N4CCC(N5CCCCC5)CC4)cc13)-c1cc3c(c(=O)n1C2)COC(=O)[C@]3(O)CC` [Form b, (S)-4,11-Diethyl-3,4,12,14-tetrahydro-4-hydroxy-3,14-dioxo-1H-pyrano[3′,4′:6,7]-indolizino[1,2-b]quinolin-9-yl[1,4′-bipiperidine]-1-carboxylate hydrochloride], the Irinotecan hydrochloride concentration reads like this: (a = deionized water, 15 MIN) 11.03 mg/mL; (a = deionized water, 30 MIN) 12.10 mg/mL; (a = deionized water, 60 MIN) 12.12 mg/mL; (a = deionized water, 120 MIN) 11.80 mg/mL; (b = pH 1.2 buffer, 15 MIN) 0.45 mg/mL; (b = pH 1.2 buffer, 30 MIN) 0.42 mg/mL. Moreover, the Irinotecan hydrochloride concentration is 0.44 mg/mL (b = pH 1.2 buffer, 60 MIN); 0.40 mg/mL (b = pH 1.2 buffer, 120 MIN); 10.27 mg/mL (c = lactic acid pH 3.5, 15 MIN); 11.06 mg/mL (c = lactic acid pH 3.5, 24 HOURS); 10.38 mg/mL (c = lactic acid pH 3.5, 30 MIN); 10.17 mg/mL (c = lactic acid pH 3.5, 60 MIN). Under “c = lactic acid pH 3.5, 120 MIN”, this molecule registered an Irinotecan hydrochloride concentration of 11.13 mg/mL.
